In US7741281B2, “Hepatitis C virus inhibitors” (Bristol-Myers Squibb Company, priority 2005, dated 2010) one finds IC50 data, which are given here for one compound.

Each structure is given as a SMILES string. Bounds are passed on as bounds.

For experiment [1], the target named is T1, porcine pancreatic elastase (PPE) (Sus scrofa, UniProt P00772).
T1 construct: purchased Sigma or EMDbiosciences
Description: Specificity assay, porcine pancreatic elastase (pNA substrate). It is filed as biochemical. The settings on record: read-out: PPE activity in the specificity assays (IC50). Here is the method: The specificities of compounds of the present disclosure were determined against a variety of serine proteases: human neutrophil elastase (HNE), porcine pancreatic elastase (PPE) and human pancreatic chymotrypsin and one cysteine protease: human liver cathepsin B. In all cases, a 96-well plate format protocol using colorimetric p-nitroaniline (pNA) substrate or fluorometric Amino-Methyl-Coumarin (AMC) substrate, specific for each enzyme was used as described previously (PCT Patent Application No. WO 00/09543) with some modifications. All enzymes were purchased from Sigma or EMDbiosciences while the substrates were from Bachem.
Each pNA assay included a 2 h enzyme-inhibitor pre-incubation at room temperature followed by addition of substrate and hydrolysis to ˜15% conversion as measured on a Spectramax Pro microplate reader. The cathepsin B assay was initiated by adding substrate to a 10 min enzyme-inhibitor pre-incubation at room temperature, and the assay plate measured immediately using the Cytofluor Series 4000. Compound concentrations varied from 100 to 0.4 μM depending on their potency.
The final conditions for each assay were as follows: […]
The percentage of inhibition was calculated using the formula: [1−((UVinh−UVblank)/(UVctl−UVblank))]×100 […]

The target of experiment [2] is T2, HCV NS3/4A protease complex, J4L6S strain (Hepatitis C virus genotype 1b, UniProt O92972, C1454S/C1711G).
T2 construct: recombinant HCV NS3/4A protease complex (amino acids 1027 to 1711) for these strains; His tag (inferred from pET21b vector and Ni-NTA purification); made in house; host or cells: Escherichia coli BL21 (DE3), pET21b
T2 sequence (O92972 1027-1711 C1454S/C1711G, one chain of several): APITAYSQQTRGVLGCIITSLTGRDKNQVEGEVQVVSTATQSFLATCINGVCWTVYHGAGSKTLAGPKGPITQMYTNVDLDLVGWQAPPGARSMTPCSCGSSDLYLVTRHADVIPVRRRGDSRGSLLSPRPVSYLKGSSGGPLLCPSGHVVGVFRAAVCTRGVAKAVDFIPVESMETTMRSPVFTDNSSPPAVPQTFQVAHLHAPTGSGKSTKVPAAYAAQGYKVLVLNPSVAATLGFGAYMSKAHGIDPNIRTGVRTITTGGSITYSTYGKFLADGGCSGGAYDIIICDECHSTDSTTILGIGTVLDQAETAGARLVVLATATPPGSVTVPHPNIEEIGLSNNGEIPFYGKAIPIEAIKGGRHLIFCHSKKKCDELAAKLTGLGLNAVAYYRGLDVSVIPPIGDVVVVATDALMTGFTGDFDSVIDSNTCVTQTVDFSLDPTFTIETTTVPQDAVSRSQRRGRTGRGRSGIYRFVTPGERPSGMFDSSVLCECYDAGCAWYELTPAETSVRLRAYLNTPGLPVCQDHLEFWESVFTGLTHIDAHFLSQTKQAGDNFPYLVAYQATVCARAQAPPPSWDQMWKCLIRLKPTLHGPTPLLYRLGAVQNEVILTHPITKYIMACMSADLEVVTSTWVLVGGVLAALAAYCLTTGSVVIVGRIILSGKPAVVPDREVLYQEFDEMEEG
Description: FRET peptide assay to monitor HCV NS3/4A proteolytic activity (J4L6S strain). It is filed as biochemical, HCV genotype 1b. The source says: HCV NS3 protease complexes, derived from the BMS strain, H77 strain or J4L6S strain, were generated, as described below. These purified recombinant proteins were generated for use in a homogeneous assay (see below) to provide an indication of how effective compounds of the present disclosure would be in inhibiting HCV NS3 proteolytic activity.
Serum from an HCV-infected patient was obtained from Dr. T. Wright, San Francisco Hospital. An engineered full-length cDNA (compliment deoxyribonucleic acid) template of the HCV genome (BMS strain) was constructed from DNA fragments obtained by reverse transcription-PCR (RT-PCR) of serum RNA (ribonucleic acid) and using primers selected on the basis of homology between other genotype 1a strains. From the determination of the entire genome sequence, a genotype 1a was assigned to the HCV isolate according to the classification of Simmonds et al. (See P Simmonds, K A Rose, S Graham, S W Chan, F McOmish, B C Dow, E A Follett, P L Yap and H Marsden, J. Clin. Microbiol., 31(6), 1493-1503 (1993)). […]

T1 sequence (P00772 27-266): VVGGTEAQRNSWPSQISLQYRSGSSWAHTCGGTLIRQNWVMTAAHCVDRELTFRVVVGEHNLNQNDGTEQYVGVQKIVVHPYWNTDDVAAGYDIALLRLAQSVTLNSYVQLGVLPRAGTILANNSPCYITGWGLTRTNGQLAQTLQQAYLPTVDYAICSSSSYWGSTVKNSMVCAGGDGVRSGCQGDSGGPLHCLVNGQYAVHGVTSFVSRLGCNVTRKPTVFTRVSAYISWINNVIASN

Consider `COc1c(O[C@@H]2C[C@H]3C(=O)N[C@]4(C(=O)NS(=O)(=O)C5CC5)C[C@H]4/C=C\CCCCC[C@H](NC(=O)OC(C)(C)C)C(=O)N3C2)ccc2c(Cl)nccc12` [Compound 3], for which the 50% inhibitory concentration (IC50) was more than 100000 nM in experiment [1] and 0.47 nM in experiment [2].
